According to the NIST ThermoML archive (doi:10.1016/j.jct.2008.10.002):

Columns and labels:
[1] = excess molar enthalpy (molar enthalpy of mixing); xn = mol fraction of the nth substance listed; conditions: 303.15 K, 101.3 kPa, Liquid
[2] = xn = mol fraction of the nth substance listed; conditions: 101.3 kPa, Liquid, Vibrating tube method
[3] = molar heat capacity at constant pressure; xn = mol fraction of the nth substance listed; conditions: 101.3 kPa, Liquid, Small sample (50 mg) DSC

CCCCn1cc[n+](C)c1.COS(=O)(=O)[O-] [1-butyl-3-methylimidazolium methyl sulfate] + O
[1]
Conditions	excess molar enthalpy [kcal/mol]
x1 = 0.0506	-0.0676
x1 = 0.1003	-0.0966
x1 = 0.1461	-0.115
x1 = 0.2018	-0.125
x1 = 0.299	-0.128
x1 = 0.4021	-0.117
x1 = 0.5447	-0.0987
x1 = 0.6795	-0.0755
x1 = 0.8434	-0.0413

Conditions	mass density, [2] [kg/m3]	molar heat capacity at constant pressure, [3] [J/K/mol]
293.15 K, x1 = 0.0213	1041.7	84.8
293.15 K, x1 = 0.0489	1081	95.3
293.15 K, x1 = 0.0996	1123.8	112
293.15 K, x1 = 0.1975	1162.3	143.8
293.15 K, x1 = 0.2938	1180	175.2
293.15 K, x1 = 0.3948	1190.5	207.8
293.15 K, x1 = 0.4809	1196.3	235.7
293.15 K, x1 = 0.5724	1200.7	265.9
293.15 K, x1 = 0.6552	1203.6	293.4
293.15 K, x1 = 0.8002	1207.3	343.5
293.15 K, x1 = 0.8199	1207.7	–
293.15 K, x1 = 0.9554	1210	397.9
298.15 K, x1 = 0.0213	1039.7	84.8
298.15 K, x1 = 0.0489	1078.3	95.6
298.15 K, x1 = 0.0996	1120.5	112.6
298.15 K, x1 = 0.1975	1158.8	144.9
298.15 K, x1 = 0.2938	1176.5	176.5
298.15 K, x1 = 0.3948	1187	209.3
298.15 K, x1 = 0.4809	1192.9	237.3
298.15 K, x1 = 0.5724	1197.3	267.7
298.15 K, x1 = 0.6552	1200.3	295.3
298.15 K, x1 = 0.8002	1204	345.5
298.15 K, x1 = 0.8199	1204.3	–
298.15 K, x1 = 0.9554	1206.7	400.1
303.15 K, x1 = 0.0213	1037.5	84.9
303.15 K, x1 = 0.0489	1075.4	96
303.15 K, x1 = 0.0996	1117.1	113.3
303.15 K, x1 = 0.1975	1155.2	146.1
303.15 K, x1 = 0.2938	1173	177.8
303.15 K, x1 = 0.3948	1183.6	210.8
303.15 K, x1 = 0.4809	1189.5	239
303.15 K, x1 = 0.5724	1193.9	269.5
303.15 K, x1 = 0.6552	1196.9	297.3
303.15 K, x1 = 0.8002	1200.7	347.6
303.15 K, x1 = 0.8199	1201	–
303.15 K, x1 = 0.9554	1203.4	402.3
308.15 K, x1 = 0.0213	1035.2	84.9
308.15 K, x1 = 0.0489	1072.4	96.2
308.15 K, x1 = 0.0996	1113.6	113.9
308.15 K, x1 = 0.1975	1151.7	147.1
308.15 K, x1 = 0.2938	1169.5	179
308.15 K, x1 = 0.3948	1180.2	212.2
308.15 K, x1 = 0.4809	1186.1	240.5
308.15 K, x1 = 0.5724	1190.6	271.2
308.15 K, x1 = 0.6552	1193.6	299.2
308.15 K, x1 = 0.8002	1197.4	349.7
308.15 K, x1 = 0.8199	1197.7	–
308.15 K, x1 = 0.9554	1200.1	404.5
313.15 K, x1 = 0.0213	1032.7	84.9
313.15 K, x1 = 0.0489	1069.3	96.5
313.15 K, x1 = 0.0996	1110.1	114.5
313.15 K, x1 = 0.1975	1148	148.1
313.15 K, x1 = 0.2938	1166	180.3
313.15 K, x1 = 0.3948	1176.7	213.6
313.15 K, x1 = 0.4809	1182.7	242.1
313.15 K, x1 = 0.5724	1187.2	272.9
313.15 K, x1 = 0.6552	1190.3	301.2
313.15 K, x1 = 0.8002	1194.1	351.7
313.15 K, x1 = 0.8199	1194.4	–
313.15 K, x1 = 0.9554	1196.8	406.7
318.15 K, x1 = 0.0213	1030.1	85.1
318.15 K, x1 = 0.0489	1066.2	96.8
318.15 K, x1 = 0.0996	1106.6	115.2
318.15 K, x1 = 0.1975	1144.4	149.1
318.15 K, x1 = 0.2938	1162.5	181.6
318.15 K, x1 = 0.3948	1173.3	215
318.15 K, x1 = 0.4809	1179.3	243.7
318.15 K, x1 = 0.5724	1183.9	274.6
318.15 K, x1 = 0.6552	1186.9	303.1
318.15 K, x1 = 0.8002	1190.8	353.8
318.15 K, x1 = 0.8199	1191.1	–
318.15 K, x1 = 0.9554	1193.6	408.9

CCCCn1cc[n+](C)c1.O=S(=O)([O-])C(F)(F)F [1-butyl-3-methylimidazolium trifluoromethanesulfonate] + O
[1]
Conditions	excess molar enthalpy [kcal/mol]
x1 = 0.1007	0.157
x1 = 0.1989	0.257
x1 = 0.2954	0.312
x1 = 0.3944	0.332
x1 = 0.4985	0.317
x1 = 0.5757	0.293
x1 = 0.6624	0.245
x1 = 0.8201	0.136

Conditions	mass density, [2] [kg/m3]	molar heat capacity at constant pressure, [3] [J/K/mol]
293.15 K, x1 = 0.0496	1119.8	98.5
293.15 K, x1 = 0.1012	1176.7	–
293.15 K, x1 = 0.1415	1202.8	131.9
293.15 K, x1 = 0.197	1227.4	–
293.15 K, x1 = 0.2965	1252.5	–
293.15 K, x1 = 0.3369	1259.7	200.1
293.15 K, x1 = 0.3873	1266.8	–
293.15 K, x1 = 0.4868	1277.3	250
293.15 K, x1 = 0.5637	1283.2	274.4
293.15 K, x1 = 0.6636	1289.1	307.4
293.15 K, x1 = 0.7124	1291.6	322.5
293.15 K, x1 = 0.796	1295.2	350.7
293.15 K, x1 = 0.9017	1298.8	387.2
293.15 K, x1 = 0.9456	1300.1	–
298.15 K, x1 = 0.0496	1116.9	98.7
298.15 K, x1 = 0.1012	1173.2	–
298.15 K, x1 = 0.1415	1199	132.6
298.15 K, x1 = 0.197	1223.4	–
298.15 K, x1 = 0.2965	1248.4	–
298.15 K, x1 = 0.3369	1255.6	201.3
298.15 K, x1 = 0.3873	1262.7	–
298.15 K, x1 = 0.4868	1273.2	251.5
298.15 K, x1 = 0.5637	1279.1	276.1
298.15 K, x1 = 0.6636	1285.1	309.4
298.15 K, x1 = 0.7124	1287.6	324.4
298.15 K, x1 = 0.796	1291.2	352.9
298.15 K, x1 = 0.9017	1294.8	389.4
298.15 K, x1 = 0.9456	1296.1	–
303.15 K, x1 = 0.0496	1113.8	98.9
303.15 K, x1 = 0.1012	1169.5	–
303.15 K, x1 = 0.1415	1195.1	133.3
303.15 K, x1 = 0.197	1219.3	–
303.15 K, x1 = 0.2965	1244.3	–
303.15 K, x1 = 0.3369	1251.5	202.7
303.15 K, x1 = 0.3873	1258.6	–
303.15 K, x1 = 0.4868	1269.1	253.2
303.15 K, x1 = 0.5637	1275.1	277.8
303.15 K, x1 = 0.6636	1281.1	311.5
303.15 K, x1 = 0.7124	1283.6	326.4
303.15 K, x1 = 0.796	1287.2	355.2
303.15 K, x1 = 0.9017	1290.9	391.8
303.15 K, x1 = 0.9456	1292.2	–
308.15 K, x1 = 0.0496	1110.6	99.1
308.15 K, x1 = 0.1012	1165.7	–
308.15 K, x1 = 0.1415	1191.2	134
308.15 K, x1 = 0.197	1215.3	–
308.15 K, x1 = 0.2965	1240.2	–
308.15 K, x1 = 0.3369	1247.4	204.1
308.15 K, x1 = 0.3873	1254.5	–
308.15 K, x1 = 0.4868	1265.1	254.9
308.15 K, x1 = 0.5637	1271	279.7
308.15 K, x1 = 0.6636	1277.1	313.7
308.15 K, x1 = 0.7124	1279.6	328.5
308.15 K, x1 = 0.796	1283.2	357.6
308.15 K, x1 = 0.9017	1286.9	394.4
308.15 K, x1 = 0.9456	1288.2	–
313.15 K, x1 = 0.0496	1107.3	99.4
313.15 K, x1 = 0.1012	1161.9	–
313.15 K, x1 = 0.1415	1187.1	134.8
313.15 K, x1 = 0.197	1211.2	–
313.15 K, x1 = 0.2965	1236	–
313.15 K, x1 = 0.3369	1243.3	205.5
313.15 K, x1 = 0.3873	1250.4	–
313.15 K, x1 = 0.4868	1261	256.7
313.15 K, x1 = 0.5637	1267	281.7
313.15 K, x1 = 0.6636	1273.1	316.1
313.15 K, x1 = 0.7124	1275.6	330.7
313.15 K, x1 = 0.796	1279.2	360.2
313.15 K, x1 = 0.9017	1283	397
313.15 K, x1 = 0.9456	1284.3	–
318.15 K, x1 = 0.0496	1103.9	99.7
318.15 K, x1 = 0.1012	1158	–
318.15 K, x1 = 0.1415	1183.1	135.7
318.15 K, x1 = 0.197	1207	–
318.15 K, x1 = 0.2965	1231.9	–
318.15 K, x1 = 0.3369	1239.1	207.1
318.15 K, x1 = 0.3873	1246.3	–
318.15 K, x1 = 0.4868	1256.9	258.7
318.15 K, x1 = 0.5637	1263	283.7
318.15 K, x1 = 0.6636	1269.1	318.6
318.15 K, x1 = 0.7124	1271.6	333.1
318.15 K, x1 = 0.796	1275.3	362.9
318.15 K, x1 = 0.9017	1279	399.9
318.15 K, x1 = 0.9456	1280.3	–
